Assay results: US8551507B2, “Terpene glycosides and their combinations as solubilizing agents” (Board of Supervisors of Louisiana State University And …, priority 2009, dated 2013)
≈ marks a conversion by molar mass, not a printed value. Read-outs that look alike come from different tables or passages of the source.

Assays:
[1] = tested on: hypertensive rats; conditions: intraperitoneal, 50 mg/kg and 100 mg/kg body weight, hypertensive rats (Hsu et al. 2002); cited from earlier work
[2] = Merck Index, Material Safety Data Sheets or general statement, cited from earlier work
[3] = Solubility test: low-solubility compound in water or in water solutions containing 10% w/v natural solubilizer, quantified by HPLC/LC-MS; conditions: 25° C. 72 hr; for Concentration in water solution With Geniposide: 10% w/v geniposide in water; for Concentration in water solution With Mogroside V: 10% w/v mogroside V in water; for Concentration in water solution With Paeoniflorin: 10% w/v paeoniflorin in water; for Concentration in water solution With Rebaudioside A: 10% w/v rebaudioside A in water; for Concentration in water solution With Rubusoside: 10% w/v rubusoside in water
[4] = 72 h
[5] = physchem; conditions: 25 °C, water, thermodynamic from solid
[6] = in vivo; cited from earlier work
[7] = cyclodextrins, comparison; cited from earlier work
[8] = Safety of daily consumption of steviol glycosides (estimates based on aglycone steviol); type: in vivo
[9] = physchem; conditions: water

Row | Compound | Water solubility in words [2] | Concentration in water solution With Geniposide [4] | Concentration in water solution With Mogroside V [4] | Concentration in water solution With Paeoniflorin [4] | Concentration in water solution With Rubusoside [4] | Concentration in water solution With Astragaloside [4] | other results
1 | C=C1C[C@@]23CC[C@H]4[C@@](C)(CCC[C@@]4(C)C(=O)O[C@@H]4O[C@H](CO)[C@@H](O)[C@H](O)[C@H]4O)[C@@H]2CC[C@]1(O[C@@H]1O[C@H](CO)[C@@H](O)[C@H](O)[C@H]1O[C@@H]1O[C@H](CO)[C@@H](O)[C@H](O)[C@H]1O)C3 [stevioside] | – | – | – | – | – | – | Adverse effects [1]: no adverse effects
2 | CC[C@@]1(O)C(=O)OCc2c1cc1n(c2=O)Cc2cc3ccccc3nc2-1 [Camptothecin, camptothecin] | poor solubility in water | – | – | – | – | – | Water solubility in words ([2]; listed as camptothecin): insoluble; Concentration in water solution With Geniposide [3]: 25000 ng/mL; Concentration in water solution With Mogroside V [3]: 18000 ng/mL; Concentration in water solution With Paeoniflorin [3]: 53000 ng/mL; Concentration in water solution With Paeoniflorin ([3]; listed as camptothecin): 54000 ng/mL; Concentration in water solution With Rebaudioside A [3]: 48000 ng/mL; Concentration in water solution With Rubusoside [3]: 61000 ng/mL
3 | CC(=O)O[C@H]1C(=O)[C@@]2(C)[C@H]([C@H](OC(=O)c3ccccc3)[C@]3(O)C[C@H](OC(=O)[C@H](O)[C@@H](NC(=O)c4ccccc4)c4ccccc4)C(C)=C1C3(C)C)[C@]1(OC(C)=O)CO[C@@H]1C[C@@H]2O [Paclitaxel, paclitaxel, reference compound] | not soluble in water | 1000 ng/mL | 7000 ng/mL | 20000 ng/mL | 65000 ng/mL | – | Water solubility in words ([2]; listed as paclitaxel): insoluble; Concentration in water solution With Rebaudioside A [4]: 26000 ng/mL
4 | CO[C@H]1C[C@H](O[C@H]2CC[C@@]3(C)[C@H](CC[C@@H]4[C@@H]3CC[C@]3(C)[C@@H](C5=CC(=O)OC5)[C@@H](OC(C)=O)C[C@]43O)C2)O[C@@H](C)[C@@H]1O [Oleandrin, oleandrin] | practically insoluble in water | – | – | – | – | – | solubility [5]: 3 µg/mL (≈ 0.0052 mM); Concentration in water solution With Geniposide [3]: 28000 ng/mL; Concentration in water solution With Mogroside V [3]: 47000 ng/mL; Concentration in water solution With Paeoniflorin [3]: 42000 ng/mL; Concentration in water solution With Rebaudioside A [3]: 67000 ng/mL; Concentration in water solution With Rubusoside [3]: 123000 ng/mL; Concentration in water solution With Stevioside ([3]; 10% w/v stevioside in water): 74000 ng/mL; Concentration in water solution With Astragaloside ([3]; nominal 10% w/v astragaloside IV in water (precipitated, less than 10%)): 5000 ng/mL; Concentration in water solution With Steviol monoside ([3]; nominal 10% w/v steviol monoside in water (precipitated, less than 10%)): 7000 ng/mL
5 | CC(C)/N=c1\cc2n(-c3ccc(Cl)cc3)c3ccccc3nc-2cc1Nc1ccc(Cl)cc1 [Clofazimine, clofazimine, reference compound] | practically insoluble in water | 48000 ng/mL | 58000 ng/mL | 565000 ng/mL | 132000 ng/mL | 400 ng/mL | solubility at 72 h [5]: 7.6 µg/mL (≈ 0.0161 mM); Concentration in water solution With Rebaudioside A [4]: 109000 ng/mL; Concentration in water solution With Steviol monoside [4]: 0 ng/mL; Concentration in water solution With Stevioside [4]: 64000 ng/mL
6 | COC1=C(OC)C(=O)C(C/C=C(\C)CC/C=C(\C)CC/C=C(\C)CC/C=C(\C)CC/C=C(\C)CC/C=C(\C)CC/C=C(\C)CC/C=C(\C)CC/C=C(\C)CCC=C(C)C)=C(C)C1=O [Coenzyme Q10, coenzyme Q10] | insolubility in water | – | – | – | 111000 ng/mL | – | –
7 | COc1cc(/C=C/C(=O)CC(=O)/C=C/c2ccc(O)c(OC)c2)ccc1O [Curcumin, curcumin] | insoluble in water | 4000 ng/mL | 44000 ng/mL | 5000 ng/mL | 262000 ng/mL | 0 ng/mL | Water solubility in words ([2]; listed as curcumin): insoluble; Concentration in water solution With Steviol monoside [4]: 4000 ng/mL
8 | COc1cc(C2Oc3cc([C@H]4Oc5cc(O)cc(O)c5C(=O)[C@@H]4O)ccc3OC2CO)ccc1O (some centres unmarked) [Silybin, silybin] | – | 16000 ng/mL | 18000 ng/mL | 37000 ng/mL | 150000 ng/mL | 0 ng/mL | Solubility in water without solubilizer [4]: 0^2 μg/mL
9 | C[C@@H]1CC[C@H]2[C@@H](C)C(=O)O[C@@H]3O[C@@]4(C)CC[C@@H]1[C@]32OO4 [Artemisinin, artemisinin, reference compound] | poorly soluble | 146000 ng/mL | 148000 ng/mL | 218000 ng/mL | 280000 ng/mL | 0 ng/mL | solubility at 72 h [5]: 53 µg/mL (≈ 0.188 mM); Water solubility in words ([2]; listed as artemisinin): insoluble
10 | C[C@H]1O[C@@H](O[C@H]2[C@@H](O)C[C@H](O[C@H]3[C@@H](O)C[C@H](O[C@H]4CC[C@@]5(C)[C@H](CC[C@@H]6[C@@H]5C[C@@H](O)[C@]5(C)[C@@H](C7=CC(=O)OC7)CC[C@]65O)C4)O[C@@H]3C)O[C@@H]2C)C[C@H](O)[C@@H]1O [Digoxin, digoxin] | – | – | – | – | – | – | solubility [5]: 19 µg/mL (≈ 0.0243 mM)
11 | Cc1ccc(-c2cc(C(F)(F)F)nn2-c2ccc(S(N)(=O)=O)cc2)cc1 [Celecoxib, celecoxib, reference compound] | poor solubility in water | 3000 ng/mL | 47000 ng/mL | 253000 ng/mL | 488000 ng/mL | 0 ng/mL | Water solubility in words ([2]; listed as celecoxib): water insoluble; Solubility in water without solubilizer [4]: 0^2 μg/mL
12 | CCC(C)n1ncn(-c2ccc(N3CCN(c4ccc(OCC5COC(Cn6cncn6)(c6ccc(Cl)cc6Cl)O5)cc4)CC3)cc2)c1=O (centres unmarked) [itraconazole, reference compound] | practically insoluble in water | – | – | – | – | – | –
13 | C=C1C[C@@]23CC[C@H]4[C@@](C)(CCC[C@@]4(C)C(=O)O)[C@@H]2CC[C@]1(O)C3 [steviol] | – | – | – | – | – | – | No-observed-effect level expressed as steviol [6]: 383 mg/kg body weight daily
14 | OC[C@H]1O[C@@H]2O[C@H]3[C@H](O)[C@@H](O)[C@@H](O[C@H]4[C@H](O)[C@@H](O)[C@@H](O[C@H]5[C@H](O)[C@@H](O)[C@@H](O[C@H]6[C@H](O)[C@@H](O)[C@@H](O[C@H]7[C@H](O)[C@@H](O)[C@@H](O[C@H]1[C@H](O)[C@H]2O)O[C@@H]7CO)O[C@@H]6CO)O[C@@H]5CO)O[C@@H]4CO)O[C@@H]3CO [α-CD] | – | – | – | – | – | – | Solubility in water [7]: 15 g/100 mL
15 | C=C1C[C@@]23CC[C@H]4[C@@](C)(CCC[C@@]4(C)C(=O)O[C@@H]4O[C@H](CO)[C@@H](O)[C@H](O)[C@H]4O)[C@@H]2CC[C@]1(O[C@@H]1O[C@H](CO)[C@@H](O)[C@H](O)[C@H]1O)C3 [Rubusoside, b-D-glucosyl ester of 13-O-b-D-glucosyl-steviol] | good solubility in water | – | – | – | – | – | No-observed-effect level ([8]; estimate based on 383 mg/kg body weight daily expressed as steviol): up to 766 mg rubusoside/kg body weight; Daily consumption that is safe and has no adverse effect ([8]; estimate based on the aglycone steviol): 8 mg rubusoside/kg body weight; solubility ([9]; 25 °C): ~400000 µg/mL (≈ 622 mM); solubility ([9]; 37 °C): ~800000 µg/mL (≈ 1240 mM)
16 | Cc1coc2c1C(=O)C(=O)c1c-2ccc2c1CCCC2(C)C [Tanshinone IIA, tanshinone IIA] | – | 100 ng/mL | 500 ng/mL | 23000 ng/mL | 127000 ng/mL | 0 ng/mL | Solubility in water without solubilizer [4]: 0^2 μg/mL
